Tested on: Rats
Test: Sleep and behavioral monitoring in rats (EEG, EMG, motion)
Format: in vivo
Conditions: for Rebound Insomnia, Adj. Mean: NREM+REM sleep in 7th-9th hours post-treatment; for Rebound Insomnia, Adj. Mean / REM inhibition, Adj. Mean / Cumulative Total sleep, Adj. Mean / Locomotor Activity Intensity, Adj. Mean: difference from vehicle; for REM inhibition, Adj. Mean: cumulative REM sleep, first 12 hr. post-treatment; for Average Sleep Bout, Adj. Mean / Longest Sleep Bout, Adj. Mean / Cumulative Total sleep, Adj. Mean / Cumulative NREM sleep, Adj. Mean / Locomotor Activity Intensity, Adj. Mean: first 6 hr. post-treatment; for Cumulative Total sleep, Adj. Mean: NREM+REM; for Cumulative NREM sleep, Adj. Mean: adjusted difference from vehicle controls
Protocol: The compound of the present invention is tested in rats for its ability to increase the amount of sleep or decrease sleep interruption or both without undesired effects such as inhibition of REM sleep, waking motor impairment, and/or rebound insomnia. Test animals are continuously monitored by electro-encephalograms (EEG), electromyograms (EMG), and motion to measure cumulative nonREM sleep, cumulative total sleep, average sleep bout duration, longest sleep bout duration, rebound insomnia. REM sleep inhibition and locomotor activity intensity during wakefulness. Methods for such studies are known in the art (see for example methods described in Edgar D M, Seidel W F. Modafinil induces wakefulness without intensifying motor activity or subsequent rebound hypersomnolence in the rat. J Pharmacology & Experimental Therapeutics 1997; 283: 757-769; van Gelder R N, Edgar D M, Dement W C. Real-time automated sleep scoring: validation of a microcomputer-based system for mice. Sleep 1991, 14: 48-55; and Gross B A, Walsh C M, Turakhia A A, Booth V, Mashour G A, Poe G R. Open-source logic-based automated sleep scoring software using electrophysiological recordings in rats. J Neurosci Methods. 2009; 184(1):10-8.) Studies are conducted as follows:
Adult, male Wistar rats (approximately 270-300 g at time of surgery) are surgically fitted for chronic recording of EEG, EMG, and motion as follows: Rats are surgically prepared with a cranial implant consisting of four stainless steel screws for EEG recording (two frontal [3.9 mm anterior from bregma, and ±2.0 mm mediolaterally] and two occipital [6.4 mm posterior from bregma, ±5.5 mm mediolaterally]), and with two Teflon-coated stainless steel wires for EMG recording (positioned under the nuchal trapezoid muscles). All leads are soldered to a miniature connector (Microtech, Boothwyn, Pa.) prior to surgery. The implant assembly is affixed to the skull by the combination of the stainless steel EEG recording screws, cyanoacrylate applied between the implant connector and skull, and dental acrylic. Locomotor activity is monitored via a miniature transmitter (Minimitter PDT4000G, Philips Respironics, Bend, Oreg.) surgically placed into the abdomen. At least 3 weeks are allowed for recovery.
Each rat is housed individually within a microisolator cage modified with an inserted polycarbonate filter-top riser to allow more vertical headroom. A flexible cable that minimally restricts movement is connected at one end to a commutator afixed to the cage top and at the other end to the animal's cranial implant. Each cage is located within separate, ventilated compartments of a stainless steel sleep-wake recording chamber. Food and water are available ad libitum and the ambient temperature is maintained at about 23±1° C. A 24-hr light-dark cycle (LD 12:12) using fluorescent light is maintained throughout the study. Relative humidity averages approximately 50%. Animals are undisturbed for at least 30 hrs before and after each treatment.
The vehicle (placebo, methylcellulose 15 centipoise 0.25% in water) or one of the test compound dose levels is administered orally at 1 mL/kg pseudo-randomly such that no rat receives the same treatment twice, and no rat receives more than two of the 8 treatments in any one study. Each rat is removed from its cage for about a minute to be weighed and treated. At least 6 days “washout” period precede and follow each treatment. […]

Structure (SMILES): Cc1ccc2c(c1)Oc1sc(C)cc1C(N1CCN(CC(C)(C)C(=O)O)CC1)=N2 [Example 3, 3-[4-(2,8-Dimethylthieno[2,3-b][1,5]benzoxazepin-4-yl)piperazin-1-yl]-2,2-dimethyl-propanoic acid; 4-methylbenzenesulfonic acid]
- Rebound Insomnia, Adj. Mean (0.025 mg/kg PO): 0.3 min
- REM inhibition, Adj. Mean (0.025 mg/kg PO): -2.7 min
- Average Sleep Bout, Adj. Mean (0.025 mg/kg PO): 1.0 n-fold increase over vehicle controls
- Longest Sleep Bout, Adj. Mean (0.025 mg/kg PO): 1.0 n-fold increase over vehicle controls
- Cumulative Total sleep, Adj. Mean (0.025 mg/kg PO): -2.3 min
- Cumulative NREM sleep, Adj. Mean (0.025 mg/kg PO): 1.3 min
- Locomotor Activity Intensity, Adj. Mean (0.025 mg/kg PO): −0.1 LMA counts per minute of EEG-defined wakefulness
- Rebound Insomnia, Adj. Mean (0.25 mg/kg PO): 1.0 min
- REM inhibition, Adj. Mean (0.25 mg/kg PO): -1.5 min
- Average Sleep Bout, Adj. Mean (0.25 mg/kg PO): 1.6 n-fold increase over vehicle controls
- Longest Sleep Bout, Adj. Mean (0.25 mg/kg PO): 1.6 n-fold increase over vehicle controls
- Cumulative Total sleep, Adj. Mean (0.25 mg/kg PO): 33.5 min
- Cumulative NREM sleep, Adj. Mean (0.25 mg/kg PO): 34.3 min
- Locomotor Activity Intensity, Adj. Mean (0.25 mg/kg PO): −1.6 LMA counts per minute of EEG-defined wakefulness
- Rebound Insomnia, Adj. Mean (0.5 mg/kg PO): -0.3 min
- REM inhibition, Adj. Mean (0.5 mg/kg PO): 0.7 min
- Average Sleep Bout, Adj. Mean (0.5 mg/kg PO): 1.6 n-fold increase over vehicle controls
- Longest Sleep Bout, Adj. Mean (0.5 mg/kg PO): 2.1 n-fold increase over vehicle controls
- Cumulative Total sleep, Adj. Mean (0.5 mg/kg PO): 21.7 min
- Cumulative NREM sleep, Adj. Mean (0.5 mg/kg PO): 21.7 min
- Locomotor Activity Intensity, Adj. Mean (0.5 mg/kg PO): 0.0 LMA counts per minute of EEG-defined wakefulness
- Rebound Insomnia, Adj. Mean (1 mg/kg PO): -3.8 min
- REM inhibition, Adj. Mean (1 mg/kg PO): 0.1 min
- Average Sleep Bout, Adj. Mean (1 mg/kg PO): 1.7 n-fold increase over vehicle controls
- Longest Sleep Bout, Adj. Mean (1 mg/kg PO): 2.2 n-fold increase over vehicle controls
- Cumulative Total sleep, Adj. Mean (1 mg/kg PO): 30.8 min
- Cumulative NREM sleep, Adj. Mean (1 mg/kg PO): 31.9 min
- Locomotor Activity Intensity, Adj. Mean (1 mg/kg PO): −2.5 LMA counts per minute of EEG-defined wakefulness
- Rebound Insomnia, Adj. Mean (3 mg/kg PO): -1.3 min
- REM inhibition, Adj. Mean (3 mg/kg PO): -4.2 min
- Average Sleep Bout, Adj. Mean (3 mg/kg PO): 1.5 n-fold increase over vehicle controls
- Longest Sleep Bout, Adj. Mean (3 mg/kg PO): 1.9 n-fold increase over vehicle controls
- Cumulative Total sleep, Adj. Mean (3 mg/kg PO): 26.9 min
- Cumulative NREM sleep, Adj. Mean (3 mg/kg PO): 29.2 min
- Locomotor Activity Intensity, Adj. Mean (3 mg/kg PO): −2.6 LMA counts per minute of EEG-defined wakefulness
- Rebound Insomnia, Adj. Mean (10 mg/kg PO): 0.4 min
- REM inhibition, Adj. Mean (10 mg/kg PO): -12.1 min
- Average Sleep Bout, Adj. Mean (10 mg/kg PO): 1.7 n-fold increase over vehicle controls
- Longest Sleep Bout, Adj. Mean (10 mg/kg PO): 1.9 n-fold increase over vehicle controls
- Cumulative Total sleep, Adj. Mean (10 mg/kg PO): 32.8 min
- Cumulative NREM sleep, Adj. Mean (10 mg/kg PO): 36.7 min
- Locomotor Activity Intensity, Adj. Mean (10 mg/kg PO): −3.7 LMA counts per minute of EEG-defined wakefulness
- change in awake time following treatment, dose response curve (FIG. 2) (rat): does not result in rebound insomnia
- change in cumulative REM sleep time, dose response curve (FIG. 1) (rat): does not inhibit REM sleep
- change in distances moved during periods of wakefulness, dose response curve (FIG. 3) (rat): does not inhibit or stimulate normal activity
